“And” between values parts separate entries of the source, which are not always exact repeats. Identical values can stand only once. Inconclusive results and toxic doses are left out. Rule as the data show it: active = T/C of 150% or more; inactive = T/C below 125%.
System: L1210 leukemia ip in BDF1 mice, survival T/C
Test: NCI In Vivo Anticancer Drug Screen. Data for tumor model L1210 Leukemia (intraperitoneal) in B6D2F1 (BDF1) mice
Conditions: endpoint: mean survival time, higher = longer survival
Procedure, shortened: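 Ratio derived from survival: compound-dosed mice over vehicle-dosed mice, all bearing a transplantable tumor.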

[1] = dose: 75.0 mg/kg/injection, schedule: Q01DX001 (ip), vehicle: saline
[2] = dose: 150.0 mg/kg/injection, schedule: Q01DX001 (ip), vehicle: saline
[3] = dose: 300.0 mg/kg/injection, schedule: Q01DX001 (ip), vehicle: saline
[4] = dose: 100.0 mg/kg/injection, schedule: Q01DX001 (ip), vehicle: saline
[5] = dose: 200.0 mg/kg/injection, schedule: Q01DX001 (ip), vehicle: saline
[6] = dose: 400.0 mg/kg/injection, schedule: Q01DX001 (ip), vehicle: saline
[7] = dose: 100.0 mg/kg/injection, schedule: Q04DX003 (ip), vehicle: saline with Tween-80
[8] = dose: 200.0 mg/kg/injection, schedule: Q04DX003 (ip), vehicle: saline with Tween-80
[9] = dose: 400.0 mg/kg/injection, schedule: Q04DX003 (ip), vehicle: saline with Tween-80
[10] = dose: 100.0 mg/kg/injection, schedule: Q01DX009 (ip), vehicle: saline with Tween-80
[11] = dose: 200.0 mg/kg/injection, schedule: Q01DX009 (ip), vehicle: saline with Tween-80
[12] = dose: 100.0 mg/kg/injection, schedule: Q04DX003 (ip), vehicle: saline
[13] = dose: 200.0 mg/kg/injection, schedule: Q04DX003 (ip), vehicle: saline
[14] = dose: 400.0 mg/kg/injection, schedule: Q04DX003 (ip), vehicle: saline
[15] = dose: 100.0 mg/kg/injection, schedule: Q04DX003 (ip), vehicle: Klucel (hydroxypropylcellulose) (HPC)
[16] = dose: 200.0 mg/kg/injection, schedule: Q04DX003 (ip), vehicle: Klucel (hydroxypropylcellulose) (HPC)
[17] = dose: 400.0 mg/kg/injection, schedule: Q04DX003 (ip), vehicle: Klucel (hydroxypropylcellulose) (HPC)
[18] = dose: 25.0 mg/kg/injection, schedule: Q01DX009 (ip), vehicle: saline
[19] = dose: 50.0 mg/kg/injection, schedule: Q01DX009 (ip), vehicle: saline
[20] = dose: 400.0 mg/kg/injection, schedule: Q01DX009 (ip), vehicle: saline with Tween-80
[21] = dose: 100.0 mg/kg/injection, schedule: Q01DX009 (ip), vehicle: saline
[22] = dose: 100.0 mg/kg/injection, schedule: Q01DX001 (ip), vehicle: saline with Tween-80

Measured: T/C

CCCCC(C)C1(C)C(=O)NC(=O)NC1=O (stereo not given)
inactive: [1] 105 % of control | [2] 103 % of control | [3] 105 % of control

O=C1OCC2Cc3cc4c(cc3C(c3ccc5c(c3)OCO5)=C12)OCO4 (stereo not given)
inactive: [4] 98 % of control | [5] 109 % of control | [6] 95 % of control

O=[N+]([O-])/C(Br)=C\c1ccc([N+](=O)[O-])cc1
inactive: dose: 75.0 mg/kg/injection, schedule: Q01DX001 (ip), vehicle: carboxymethylcellulose (CMC) 98 % of control | dose: 150.0 mg/kg/injection, schedule: Q01DX001 (ip), vehicle: carboxymethylcellulose (CMC) 105 % of control

O=C(NO)c1cc(=O)[nH]o1
inactive: [7] 95 % of control | [8] 95 % of control | [9] 95 % of control

CC(=O)N(C)c1cc([N+](=O)[O-])ccc1OCc1ccccc1
inactive: dose: 50.0 mg/kg/injection, schedule: Q01DX001 (ip), vehicle: saline 102 % of control | [4] 96 % of control

N#C/C(=C\c1cccn1Cc1cc2c(cc1[N+](=O)[O-])OCO2)C(N)=O
inactive: dose: 25.0 mg/kg/injection, schedule: Q04DX002 (ip), vehicle: Klucel (hydroxypropylcellulose) (HPC) 96 % of control | dose: 50.0 mg/kg/injection, schedule: Q04DX002 (ip), vehicle: Klucel (hydroxypropylcellulose) (HPC) 96 % of control | dose: 100.0 mg/kg/injection, schedule: Q04DX002 (ip), vehicle: Klucel (hydroxypropylcellulose) (HPC) 96 % of control

CC(=O)OCCCCc1ccccc1
inactive: dose: 50.0 mg/kg/injection, schedule: Q01DX009 (ip), vehicle: saline with Tween-80 97 % of control | [10] 97 % of control | [11] 87 % of control

O=C1CCC(N2C(=O)C3C4C=CC(CC4)C3C2=O)C(=O)N1 (stereo not given)
inactive: [12] 97 % of control | [13] 102 % of control | [14] 90 % of control

CCC(=O)Nc1ccc(Cl)cc1
inactive: dose: 100.0 mg/kg/injection, schedule: Q01DX009 (ip), vehicle: Klucel (hydroxypropylcellulose) (HPC) 87 % of control | [15] 95 % of control | dose: 200.0 mg/kg/injection, schedule: Q01DX009 (ip), vehicle: Klucel (hydroxypropylcellulose) (HPC) 93 % of control | [16] 95 % of control | dose: 400.0 mg/kg/injection, schedule: Q01DX009 (ip), vehicle: Klucel (hydroxypropylcellulose) (HPC) 104 % of control | [17] 95 % of control

c1ccc(C2O[O][Sn]([c]3ccccc3)([c]3ccccc3)[O]2)cc1 (stereo not given)
inactive: dose: 25.0 mg/kg/injection, schedule: Q04DX002 (ip), vehicle: gum acacia 97 % of control | dose: 50.0 mg/kg/injection, schedule: Q04DX002 (ip), vehicle: gum acacia 111 % of control | dose: 100.0 mg/kg/injection, schedule: Q04DX002 (ip), vehicle: gum acacia 105 % of control and 86 % of control

CCCC(C)(C)SSC(C)(C)CCC
inactive: [10] 98 % of control | [7] 103 % of control | [11] 96 % of control | [8] 110 % of control | [9] 117 % of control

CN(C)CCC(CN=C(N)N)c1cccc2ccccc12 (stereo not given)
inactive: dose: 12.5 mg/kg/injection, schedule: Q01DX009 (ip), vehicle: saline 100 % of control | [18] 100 % of control | dose: 25.0 mg/kg/injection, schedule: Q04DX002 (ip), vehicle: saline 93 % of control | [19] 101 % of control | dose: 50.0 mg/kg/injection, schedule: Q04DX002 (ip), vehicle: saline 97 % of control

C(/C=C/c1ccccc1)=C1c2ccccc2-c2ccccc21
inactive: [10] 88 % of control | [7] 90 % of control | [11] 98 % of control | [8] 93 % of control | [20] 96 % of control | [9] 95 % of control

CCS(=O)(=O)c1ccc(NC(=O)OC2CC(C)CCC2C(C)C)cc1 (stereo not given)
inactive: dose: 100.0 mg/kg/injection, schedule: Q01DX001 (ip), vehicle: carboxymethylcellulose (CMC) 100 % of control | dose: 200.0 mg/kg/injection, schedule: Q01DX001 (ip), vehicle: carboxymethylcellulose (CMC) 102 % of control | dose: 400.0 mg/kg/injection, schedule: Q01DX001 (ip), vehicle: carboxymethylcellulose (CMC) 91 % of control

CCCCCCCCCCCCCCCCCC(=O)[O][Sn]([CH2]CCC)([CH2]CCC)[O]C(=O)CCCCCCCCCCCCCCCCC
inactive: dose: 6.25 mg/kg/injection, schedule: Q04DX003 (ip), vehicle: other 100 % of control | dose: 12.5 mg/kg/injection, schedule: Q04DX003 (ip), vehicle: other 114 % of control | dose: 25.0 mg/kg/injection, schedule: Q04DX003 (ip), vehicle: other 101 % of control | dose: 50.0 mg/kg/injection, schedule: Q04DX003 (ip), vehicle: other 101 % of control

CCCCC(CC)CCC(O)CCC(CC)CC (stereo not given)
inactive: [15] 102 % of control | [16] 98 % of control | [17] 102 % of control

COc1ccc(OC)c(C(=O)CC2OCCO2)c1
inactive: [4] 95 % of control | [5] 95 % of control | [6] 105 % of control

O=C1c2ccccc2-c2c1nc1ccccc1[n+]2[O-]
inactive: dose: 75.0 mg/kg/injection, schedule: Q01DX001 (ip), vehicle: saline sonified 89 % of control | dose: 150.0 mg/kg/injection, schedule: Q01DX001 (ip), vehicle: saline sonified 92 % of control | dose: 300.0 mg/kg/injection, schedule: Q01DX001 (ip), vehicle: saline sonified 92 % of control

Cc1cc2nc3[nH]c4c(Cl)cc(Cl)cc4c3nc2cc1C
inactive: [4] 91 % of control | [5] 89 % of control | [6] 89 % of control

COc1cc(/C=N/NC(=O)C[n+]2ccccc2)cc(OC)c1
inactive: [18] 119 % of control | [19] 103 % of control | [21] 116 % of control | [12] 96 % of control

C[n+]1c(-c2cc(C(F)(F)F)cc(C(F)(F)F)c2)c2cc(N)ccc2c2ccc(N)cc21
inactive: dose: 100.0 mg/kg/injection, schedule: Q01DX005 (ip), vehicle: water 97 % of control

CC(CS(=O)(=O)O)N1CCN(CCO)CC1 (stereo not given)
inactive: [21] 101 % of control | [12] 108 % of control | dose: 200.0 mg/kg/injection, schedule: Q01DX009 (ip), vehicle: saline 96 % of control | [13] 103 % of control | dose: 400.0 mg/kg/injection, schedule: Q01DX009 (ip), vehicle: saline 96 % of control | [14] 94 % of control

O=c1[nH]c2ccccc2nc1C(Br)Br
inactive: [15] 97 % of control | [16] 105 % of control | [17] 97 % of control

O=C1C(=O)c2ccccc2C(O)=C1C(C1=C(O)c2ccccc2C(=O)C1=O)c1ccc(Cl)cc1
inactive: [1] 86 % of control | [2] 86 % of control | [3] 86 % of control

CC(C(=O)c1ccc(Br)cc1)C(Br)c1ccccc1 (stereo not given)
inactive: [10] 95 % of control | [7] 96 % of control | [11] 95 % of control | [8] 91 % of control | [20] 95 % of control | [9] 98 % of control

O=C1OC(C(Cl)(Cl)Cl)OC1C(Cl)(Cl)Cl (stereo not given)
inactive: dose: 25.0 mg/kg/injection, schedule: Q01DX001 (ip), vehicle: saline with Tween-80 98 % of control | dose: 50.0 mg/kg/injection, schedule: Q01DX001 (ip), vehicle: saline with Tween-80 96 % of control | [22] 93 % of control

CCCCCCCCCCCCCC=C(C)C
inactive: [22] 94 % of control | dose: 200.0 mg/kg/injection, schedule: Q01DX001 (ip), vehicle: saline with Tween-80 94 % of control | dose: 400.0 mg/kg/injection, schedule: Q01DX001 (ip), vehicle: saline with Tween-80 87 % of control

Reference: PubChem BioAssay AID248 (DTP/NCI, 2004)
